In paper PMC7489537, “Ser-653-Asn substitution in the acetohydroxyacid synthase gene confers resistance in weedy rice to imidazolinone herbicides in Malaysia” (PLoS ONE, 2020) one finds IC50 data, which are given here for 2 compounds.

Changes are numbered by the printed parent chain.

Test [1] deals with T1, AHAS (acetohydroxyacid synthase), weedy rice (Oryza sativa, UniProt Q6K2E8, S627N/V643M).
T1 construct: gene ALS1; native enzyme, partially purified leaf extract; Pro93 and Met669 (Arabidopsis numbering); resistant weedy rice allele (S653N) deposited as GenBank MN268688
T1 sequence (Q6K2E8 44-644 S627N/V643M): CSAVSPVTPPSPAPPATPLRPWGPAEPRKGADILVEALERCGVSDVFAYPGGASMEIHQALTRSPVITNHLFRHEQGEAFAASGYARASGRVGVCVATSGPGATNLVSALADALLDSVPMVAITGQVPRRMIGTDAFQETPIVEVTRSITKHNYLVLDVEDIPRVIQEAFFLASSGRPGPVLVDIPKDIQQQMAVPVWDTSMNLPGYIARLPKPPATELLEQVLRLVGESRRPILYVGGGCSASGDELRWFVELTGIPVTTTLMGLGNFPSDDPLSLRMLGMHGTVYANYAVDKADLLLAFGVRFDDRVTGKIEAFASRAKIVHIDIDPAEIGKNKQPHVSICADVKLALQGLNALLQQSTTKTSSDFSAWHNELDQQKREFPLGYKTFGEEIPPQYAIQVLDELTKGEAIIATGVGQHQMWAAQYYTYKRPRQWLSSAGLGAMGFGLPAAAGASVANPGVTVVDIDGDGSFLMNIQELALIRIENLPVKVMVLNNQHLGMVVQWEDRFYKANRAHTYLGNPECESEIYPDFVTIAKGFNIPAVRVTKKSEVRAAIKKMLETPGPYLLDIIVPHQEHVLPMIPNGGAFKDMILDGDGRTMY
The test can be described thus: AHAS inhibition assay, colorimetric acetoin at […] nm. Format: biochemical. Particulars: susceptible (S) population; partially purified leaf extract; 60 min incubation; read-out: I50.

Test [2] addresses T2, AHAS (acetohydroxyacid synthase), MR219 (Oryza sativa, UniProt Q6K2E8, P67T).
T2 construct: gene ALS1; native enzyme, partially purified leaf extract; natural Thr93, Ser653, Val669 (Arabidopsis numbering)
T2 sequence (Q6K2E8 44-644 P67T): T1 sequence (Q6K2E8 44-644 S627N/V643M) with P24T, N584S, M600V
Described as above. Format: biochemical. Particulars: cultivar MR219; partially purified leaf extract; 60 min incubation; read-out: I50.

Consider `CC(C)C1(C)N=C(c2ncccc2C(=O)O)NC1=O` (stereo not shown) [imazapyr], for which the IC50 in test [1] turned out to be 2.5 nM; in test [2], 1.7 nM.
With `Cc1cnc(C2=NC(=O)C(C)(C(C)C)N2)c(C(=O)O)c1` (stereo not shown) [imazapic], the IC50 came out at 1.2 nM in test [1] and 1.7 nM in test [2].
